According to patent US7365231B2, “Compound with antitumor activity and preparation method therefor” (National Taiwan University of Science & Technology, priority 2005, dated 2008):

Assays:
HT-29 cells = test: Cell cycle analysis by flow cytometry; format: cell-based, human
Experimental: […] […] HT-29 cells were mainly in G0/G1 phase (84.1-86.0%), and only a few percent of cells in S phase (7.4-8.0%) after exposure to 4 μM DPA for 48-72 h. […] The G0/G1 arrest was not induced in the HCT-15 cells treated with 1-8 μM DPA for 24-72 h. […] DPA exerted the dose specific effect for the induced G0/G1 arrest on Colo 205 cells. […] In addition, we noted that DPA-mediated accumulation of Colo205 and HT 29 cells in G1 phase (>80%) was similar to that of DPD (Anti-Cancer Drug 2004; 15:277-80). It is likely that the induced G1-arrest without concomitant apoptosis on Colo 205 and HT 29 colon cancer cells is one unique property of structure I.

[1] = system: human colon cancer Colo 205 xenografts; test: In vivo antitumor effect of DPA and/or CPT-11, xenografts; set-up: species or system ICR nude mice; conditions: DPA 20 mg/kg i.p. twice a week; end of experiment
Experimental: To further investigate whether DPA could enhance the antitumoral activity of the chemotherapeutic agent CPT-11, Colo 205 cells were treated with DPA or DPA in combination with CPT-11. Cancer cells were transplanted into ICR nude mice, and when the tumors were palpable (30˜35 mm^3), the mice were treated either with vehicle control, CPT-11 or DPA (20 mg/kg, i.p., twice a week). Tumour volume(V) was calculated according to the following formula: V(mm^3)=0.4AB^2, where A and B are the longest diameter and the shortest diameter, respectively (Cancer Res. 1966; 26:1787-1800). […] The tumor size of DPA in combination with CPT-11-treated mice was a 73% decrease as compared with that of CPT-11-treated mice.

Q: How did the “G0/G1 cell-cycle arrest and apoptosis” value (HT-29 cells; HT 29) turn out when `Nc1ccc(Oc2ccc(C3(c4ccc(Oc5ccc(N)c(O)c5)cc4)C4CC5CC(C4)CC3C5)cc2)cc1O` [DPA, 2,2-bis(4-(4-amino-3-hydroxyphenoxy)phenyl)adamantane] was run?
A: G0/G1 cell-cycle arrest without concomitant apoptosis

Q: And the “accumulation of cells in G1 phase” value (HT-29 cells; HT 29)?
A: > 80%

Q: And the “cells in G0/G1 phase” value (HT-29 cells; HT-29, 4 μM DPA for 48-72 h)?
A: 84.1-86.0%

Q: And the “cells in S phase” value (HT-29 cells; HT-29, 4 μM DPA for 48-72 h)?
A: 7.4-8.0%

Q: What about the “G0/G1(%)” value (HT-29 cells; HT-29, DPA 1 μM, 24 h) of the same compound?
A: 56.6%

Q: And the “G2/M(%)” value (HT-29 cells; HT-29, DPA 1 μM, 24 h)?
A: 10.3%

Q: What about the “S(%)” value (HT-29 cells; HT-29, DPA 1 μM, 24 h) of the same compound?
A: 33.1%

Q: And the “G0/G1(%)” value (HT-29 cells; HT-29, DPA 1 μM, 48 h)?
A: 61.6%

Q: What about the “G2/M(%)” value (HT-29 cells; HT-29, DPA 1 μM, 48 h) of the same compound?
A: 9.4%

Q: And the “S(%)” value (HT-29 cells; HT-29, DPA 1 μM, 48 h)?
A: 29.0%

Q: What about the “G0/G1(%)” value (HT-29 cells; HT-29, DPA 1 μM, 72 h) of the same compound?
A: 72.6%

Q: What about the “G2/M(%)” value (HT-29 cells; HT-29, DPA 1 μM, 72 h) of the same compound?
A: 7.3%

Q: What about the “S(%)” value (HT-29 cells; HT-29, DPA 1 μM, 72 h) of the same compound?
A: 20.1%

Q: And the “G0/G1(%)” value (HT-29 cells; HT-29, DPA 2 μM, 24 h)?
A: 67.0%

Q: And the “G2/M(%)” value (HT-29 cells; HT-29, DPA 2 μM, 24 h)?
A: 10.0%

Q: What about the “S(%)” value (HT-29 cells; HT-29, DPA 2 μM, 24 h) of the same compound?
A: 23.1%

Q: What about the “G0/G1(%)” value (HT-29 cells; HT-29, DPA 2 μM, 48 h) of the same compound?
A: 77.5%

Q: And the “G2/M(%)” value (HT-29 cells; HT-29, DPA 2 μM, 48 h)?
A: 4.7%

Q: And the “S(%)” value (HT-29 cells; HT-29, DPA 2 μM, 48 h)?
A: 17.8%

Q: And the “G0/G1(%)” value (HT-29 cells; HT-29, DPA 2 μM, 72 h)?
A: 67.3%

Q: What about the “G2/M(%)” value (HT-29 cells; HT-29, DPA 2 μM, 72 h) of the same compound?
A: 2.9%

Q: And the “S(%)” value (HT-29 cells; HT-29, DPA 2 μM, 72 h)?
A: 29.9%

Q: And the “G0/G1(%)” value (HT-29 cells; HT-29, DPA 4 μM, 24 h)?
A: 72.1%

Q: What about the “G2/M(%)” value (HT-29 cells; HT-29, DPA 4 μM, 24 h) of the same compound?
A: 10.9%

Q: What about the “S(%)” value (HT-29 cells; HT-29, DPA 4 μM, 24 h) of the same compound?
A: 17.1%

Q: What about the “G0/G1(%)” value (HT-29 cells; HT-29, DPA 4 μM, 48 h) of the same compound?
A: 84.1%

Q: What about the “G2/M(%)” value (HT-29 cells; HT-29, DPA 4 μM, 48 h) of the same compound?
A: 8.5%

Q: What about the “S(%)” value (HT-29 cells; HT-29, DPA 4 μM, 48 h) of the same compound?
A: 7.4%

Q: And the “G0/G1(%)” value (HT-29 cells; HT-29, DPA 4 μM, 72 h)?
A: 86.0%

Q: And the “G2/M(%)” value (HT-29 cells; HT-29, DPA 4 μM, 72 h)?
A: 6.1%

Q: What about the “S(%)” value (HT-29 cells; HT-29, DPA 4 μM, 72 h) of the same compound?
A: 8.0%

Q: What about the “G0/G1(%)” value (HT-29 cells; HT-29, DPA 8 μM, 24 h) of the same compound?
A: 77.0%

Q: And the “G2/M(%)” value (HT-29 cells; HT-29, DPA 8 μM, 24 h)?
A: 9.6%

Q: What about the “S(%)” value (HT-29 cells; HT-29, DPA 8 μM, 24 h) of the same compound?
A: 13.3%

Q: What about the “G0/G1(%)” value (HT-29 cells; HT-29, DPA 8 μM, 48 h) of the same compound?
A: 79.5%

Q: What about the “G2/M(%)” value (HT-29 cells; HT-29, DPA 8 μM, 48 h) of the same compound?
A: 10.0%

Q: What about the “S(%)” value (HT-29 cells; HT-29, DPA 8 μM, 48 h) of the same compound?
A: 10.6%

Q: And the “G0/G1(%)” value (HT-29 cells; HT-29, DPA 8 μM, 72 h)?
A: 86.3%

Q: What about the “G2/M(%)” value (HT-29 cells; HT-29, DPA 8 μM, 72 h) of the same compound?
A: 6.2%

Q: And the “S(%)” value (HT-29 cells; HT-29, DPA 8 μM, 72 h)?
A: 7.5%

Q: And the “tumor size compared to control groups” value [1]?
A: significantly (P<0.05) decreased
